Results: ChEMBL document CHEMBL3885881, “DrugMatrix”

Species on record: Rattus norvegicus
Assay type: toxicity, organism-based, Sprague-Dawley
Settings: in vivo, po, route oral GAVAGE, […]; for ALANINE AMINOTRANSFERASE / ALBUMIN / ALKALINE PHOSPHATASE / ASPARTATE AMINOTRANSFERASE / BLOOD UREA NITROGEN / CARBON DIOXIDE / CHOLESTEROL / CREATINE PHOSPHOKINASE / CREATININE / LACTATE DEHYDROGENASE / POTASSIUM / TOTAL BILIRUBIN / TOTAL PROTEIN / PHOSPHORUS / GLUCOSE / LIPASE: tissue Plasma
[1] = 0 mg/kg, 6 h, vehicle control, tissue Blood, dose level Control, time 0.25 day
[2] = 0 mg/kg, 6 h, vehicle control, dose level Control, time 0.25 day
[3] = 0 mg/kg, 24 h, vehicle control, tissue Blood, dose level Control, time 1 day
[4] = 0 mg/kg, 24 h, vehicle control, dose level Control, time 1 day
[5] = 100 mg/kg, 6 h, tissue Blood, dose level M1, time 0.25 day
[6] = 100 mg/kg, 6 h, dose level M1, time 0.25 day
[7] = 100 mg/kg, 24 h, tissue Blood, dose level M1, time 1 day
[8] = 100 mg/kg, 24 h, dose level M1, time 1 day
[9] = 860 mg/kg, 6 h, tissue Blood, dose level High, time 0.25 day
[10] = 860 mg/kg, 6 h, dose level High, time 0.25 day
[11] = 860 mg/kg, 24 h, tissue Blood, dose level High, time 1 day
[12] = 860 mg/kg, 24 h, dose level High, time 1 day

Description: DrugMatrix - Regimen: Single

Compound: CC(C)OC(=O)C(C)(C)Oc1ccc(C(=O)c2ccc(Cl)cc2)cc1 [FENOFIBRATE]
- ABSOLUTE EOSINOPHIL [1]: 0 CELLS/uL
- ABSOLUTE LYMPHOCYTE [1]: 8631 CELLS/uL
- ABSOLUTE MONOCYTE [1]: 171.17 CELLS/uL
- ABSOLUTE SEGMENTED NEUTROPHIL [1]: 1214.5 CELLS/uL
- BASOPHIL [1]: 0%
- EOSINOPHIL [1]: 0%
- ERYTHROCYTE COUNT [1]: 5.42 x10E6/uL
- HEMATOCRIT [1]: 34.7%
- HEMOGLOBIN [1]: 13.67 G/DL
- LYMPHOCYTE [1]: 86.17%
- MEAN CORPUSCULAR HEMOGLOBIN CONCENTRATION [1]: 39.42 G/DL
- MEAN CORPUSCULAR VOLUME [1]: 64.12 fL
- NEUTROPHIL [1]: 12.17%
- NUCLEATED RED BLOOD CELLS [1]: 0 /100WBC
- ALANINE AMINOTRANSFERASE [2]: 61 u/L
- ALBUMIN [2]: 4.67 G/DL
- ALKALINE PHOSPHATASE [2]: 312.5 u/L
- ASPARTATE AMINOTRANSFERASE [2]: 117.5 u/L
- BLOOD UREA NITROGEN [2]: 8.67 mg/dL
- CARBON DIOXIDE [2]: 26.33 mmol/L
- CHOLESTEROL [2]: 72 mg/dL
- CREATINE PHOSPHOKINASE [2]: 283.33 u/L
- CREATININE [2]: 0.28 mg/dL
- LACTATE DEHYDROGENASE [2]: 95.33 u/L
- POTASSIUM [2]: 5.75 MEQ/L
- TOTAL BILIRUBIN [2]: 0.3 mg/dL
- TOTAL PROTEIN [2]: 5.43 G/DL
- ABSOLUTE EOSINOPHIL [3]: 90.83 CELLS/uL
- ABSOLUTE LYMPHOCYTE [3]: 14725.17 CELLS/uL
- ABSOLUTE MONOCYTE [3]: 220 CELLS/uL
- ABSOLUTE SEGMENTED NEUTROPHIL [3]: 1080.67 CELLS/uL
- BASOPHIL [3]: 0%
- EOSINOPHIL [3]: 0.67%
- ERYTHROCYTE COUNT [3]: 5.3 x10E6/uL
- HEMATOCRIT [3]: 33.4%
- HEMOGLOBIN [3]: 13.4 G/DL
- LYMPHOCYTE [3]: 91.17%
- MEAN CORPUSCULAR HEMOGLOBIN CONCENTRATION [3]: 40.12 G/DL
- MEAN CORPUSCULAR VOLUME [3]: 63.05 fL
- NEUTROPHIL [3]: 6.67%
- NUCLEATED RED BLOOD CELLS [3]: 0 /100WBC
- ALANINE AMINOTRANSFERASE [4]: 69 u/L
- ALBUMIN [4]: 4.33 G/DL
- ALKALINE PHOSPHATASE [4]: 269 u/L
- ASPARTATE AMINOTRANSFERASE [4]: 83.67 u/L
- BLOOD UREA NITROGEN [4]: 14 mg/dL
- CARBON DIOXIDE [4]: 29 mmol/L
- CHOLESTEROL [4]: 66.67 mg/dL
- CREATINE PHOSPHOKINASE [4]: 355 u/L
- CREATININE [4]: 0.18 mg/dL
- LACTATE DEHYDROGENASE [4]: 123.33 u/L
- PHOSPHORUS [4]: 8.83 mg/dL
- POTASSIUM [4]: 6.06 MEQ/L
- TOTAL BILIRUBIN [4]: 0.2 mg/dL
- TOTAL PROTEIN [4]: 5.72 G/DL
- ABSOLUTE EOSINOPHIL [5]: 0 CELLS/uL
- ABSOLUTE LYMPHOCYTE [5]: 15645.5 CELLS/uL
- ABSOLUTE MONOCYTE [5]: 363.5 CELLS/uL
- ABSOLUTE SEGMENTED NEUTROPHIL [5]: 1824.33 CELLS/uL
- BASOPHIL [5]: 0%
- EOSINOPHIL [5]: 0%
- ERYTHROCYTE COUNT [5]: 5.47 x10E6/uL
- HEMATOCRIT [5]: 34.7%
- HEMOGLOBIN [5]: 13.57 G/DL
- LYMPHOCYTE [5]: 88%
- MEAN CORPUSCULAR HEMOGLOBIN CONCENTRATION [5]: 39.12 G/DL
- MEAN CORPUSCULAR VOLUME [5]: 63.42 fL
- NUCLEATED RED BLOOD CELLS [5]: 0 /100WBC
- ALANINE AMINOTRANSFERASE [6]: 47.67 u/L
- ALBUMIN [6]: 4.43 G/DL
- ALKALINE PHOSPHATASE [6]: 355.83 u/L
- ASPARTATE AMINOTRANSFERASE [6]: 100.33 u/L
- BLOOD UREA NITROGEN [6]: 8.17 mg/dL
- CARBON DIOXIDE [6]: 21.33 mmol/L
- CHOLESTEROL [6]: 77.33 mg/dL
- CREATINE PHOSPHOKINASE [6]: 740.17 u/L
- CREATININE [6]: 0.18 mg/dL
- LACTATE DEHYDROGENASE [6]: 327.83 u/L
- PHOSPHORUS [6]: 12.3 mg/dL
- TOTAL BILIRUBIN [6]: 0.22 mg/dL
- TOTAL PROTEIN [6]: 5.92 G/DL
- ABSOLUTE EOSINOPHIL [7]: 24.83 CELLS/uL
- ABSOLUTE LYMPHOCYTE [7]: 12569.67 CELLS/uL
- ABSOLUTE MONOCYTE [7]: 401.83 CELLS/uL
- ABSOLUTE SEGMENTED NEUTROPHIL [7]: 920.33 CELLS/uL
- BASOPHIL [7]: 0%
- EOSINOPHIL [7]: 0.17%
- ERYTHROCYTE COUNT [7]: 4.96 x10E6/uL
- HEMATOCRIT [7]: 32.78%
- HEMOGLOBIN [7]: 13.08 G/DL
- LYMPHOCYTE [7]: 90.5%
- MEAN CORPUSCULAR HEMOGLOBIN [7]: 26.38 pg
- MEAN CORPUSCULAR HEMOGLOBIN CONCENTRATION [7]: 39.95 G/DL
- MEAN CORPUSCULAR VOLUME [7]: 66.03 fL
- NEUTROPHIL [7]: 6.67%
- NUCLEATED RED BLOOD CELLS [7]: 0.33 /100WBC
- ALANINE AMINOTRANSFERASE [8]: 74.83 u/L
- ALBUMIN [8]: 4.45 G/DL
- ALKALINE PHOSPHATASE [8]: 321.17 u/L
- ASPARTATE AMINOTRANSFERASE [8]: 86.17 u/L
- BLOOD UREA NITROGEN [8]: 13 mg/dL
- CARBON DIOXIDE [8]: 30.83 mmol/L
- CHOLESTEROL [8]: 42.83 mg/dL
- CREATINE PHOSPHOKINASE [8]: 282.83 u/L
- CREATININE [8]: 0.19 mg/dL
- GLUCOSE [8]: 147.17 mg/dL
- LIPASE [8]: 9.17 u/L
- TOTAL BILIRUBIN [8]: 0.15 mg/dL
- TOTAL PROTEIN [8]: 5.55 G/DL
- ABSOLUTE EOSINOPHIL [9]: 0 CELLS/uL
- ABSOLUTE LYMPHOCYTE [9]: 9866.33 CELLS/uL
- ABSOLUTE MONOCYTE [9]: 201 CELLS/uL
- ABSOLUTE SEGMENTED NEUTROPHIL [9]: 1482.67 CELLS/uL
- BASOPHIL [9]: 0%
- EOSINOPHIL [9]: 0%
- ERYTHROCYTE COUNT [9]: 5.53 x10E6/uL
- HEMATOCRIT [9]: 35.82%
- HEMOGLOBIN [9]: 14.02 G/DL
- LYMPHOCYTE [9]: 85%
- MEAN CORPUSCULAR HEMOGLOBIN CONCENTRATION [9]: 39.15 G/DL
- MEAN CORPUSCULAR VOLUME [9]: 64.97 fL
- NEUTROPHIL [9]: 13.17%
- NUCLEATED RED BLOOD CELLS [9]: 0 /100WBC
- ALANINE AMINOTRANSFERASE [10]: 53.5 u/L
- ALBUMIN [10]: 4.48 G/DL
- ALKALINE PHOSPHATASE [10]: 282.5 u/L
- ASPARTATE AMINOTRANSFERASE [10]: 93.33 u/L
- BLOOD UREA NITROGEN [10]: 9 mg/dL
- CARBON DIOXIDE [10]: 26 mmol/L
- CHOLESTEROL [10]: 64 mg/dL
- CREATINE PHOSPHOKINASE [10]: 406.33 u/L
- CREATININE [10]: 0.16 mg/dL
- LACTATE DEHYDROGENASE [10]: 198.83 u/L
- TOTAL BILIRUBIN [10]: 0.2 mg/dL
- TOTAL PROTEIN [10]: 6.02 G/DL
- ABSOLUTE EOSINOPHIL [11]: 43 CELLS/uL
- ABSOLUTE LYMPHOCYTE [11]: 12968.67 CELLS/uL
- ABSOLUTE MONOCYTE [11]: 388.33 CELLS/uL
- ABSOLUTE SEGMENTED NEUTROPHIL [11]: 1900 CELLS/uL
- BASOPHIL [11]: 0%
- EOSINOPHIL [11]: 0.33%
- ERYTHROCYTE COUNT [11]: 5.77 x10E6/uL
- HEMATOCRIT [11]: 35.63%
- HEMOGLOBIN [11]: 14.08 G/DL
- LYMPHOCYTE [11]: 85.17%
- MEAN CORPUSCULAR HEMOGLOBIN CONCENTRATION [11]: 39.53 G/DL
- MEAN CORPUSCULAR VOLUME [11]: 61.83 fL
- NEUTROPHIL [11]: 12%
- NUCLEATED RED BLOOD CELLS [11]: 0 /100WBC
- ALANINE AMINOTRANSFERASE [12]: 115.33 u/L
- ALBUMIN [12]: 4.42 G/DL
- ALKALINE PHOSPHATASE [12]: 359 u/L
- ASPARTATE AMINOTRANSFERASE [12]: 123.33 u/L
- BLOOD UREA NITROGEN [12]: 10.33 mg/dL
- CARBON DIOXIDE [12]: 27.83 mmol/L
- CHOLESTEROL [12]: 51.5 mg/dL
- CREATINE PHOSPHOKINASE [12]: 497 u/L
- CREATININE [12]: 0.24 mg/dL
- GLUCOSE [12]: 134.17 mg/dL
- LACTATE DEHYDROGENASE [12]: 204.83 u/L
- LIPASE [12]: 9 u/L
- POTASSIUM [12]: 5.95 MEQ/L
- TOTAL BILIRUBIN [12]: 0.22 mg/dL
- TOTAL PROTEIN [12]: 5.72 G/DL
